From patent EP3577173B1, “COMPOSITIONS CONTAINING FATTY ACID ESTERS OF VEGETABLE ORIGIN AS SOLVENTS” (Benessere, Vincenzo, priority 2017, dated 2018)

What was measured:
[1] = Dissolution time of resin in solvent until the solution is clear (base for coating materials); format: physicochemical; conditions: magnetic stirring, time when solution becomes clear and no deposit is found
Description: Three commercial solvents (D100, mineral oil; 7129, 2-ethylhexyl palmitate; PARYOL TMC 810T, caprylic/capric triglyceride) and the solvents described in examples 1-4 were used. The resins of Example 1 and the chosen solvent were placed on a heating plate under magnetic stirring at 80 °C for one hour, and then allowed to cool to ambient temperature for 24 hrs. Table 1. ROSIN MODIFIED ESTER RESIN BASED PAINTS

[2] = Dynamic light scattering of 5% by weight resin solution (solvent power); format: physicochemical; conditions: DLS
Description: A first assessment of the higher solvent power of pelargonic acid esters with respect to the classical solvents can be performed by means of the analysis of the data obtained with the dynamic light scattering technique (SMD 6000 Laser Quantum apparatus,50 mW source of light beam at 532.5 nm) carried out on the solution at 5% by weight of modified phenolic (Table 3) and Maleic (Table 4)Resin, solubilized with traditional mineral solvents (base mineral oilD100), traditional vegetal oil (RADIA 7129) and the solvents of the present invention. The DLS technique (Dynamic Light Scattering) allows to monitor the intensity depending on time of the light scattered by an object into a solution. The speed of fluctuation of the light intensity depends on the speed with which the element capable of generating such scattering moves into a solution; the latter is described by the diffusion coefficient D, which is related to the size of the particles into the solution, in particular to the hydrodynamic radius RI of a ball moving in a solvent having a viscosity η, according to the Stokes-Einstein equation: D = (kT)/(6πηRi) [formula] where k is the Boltzmann constant and T is the temperature.
The measurements of the dynamic light scattering allowed to evaluate the capacity of different solvents, used to disperse the two resins, to generate sub-micrometric aggregates: K16 and a maleic resin. This dispersion capacity is linked to the solvent capacity of individual substances. The lower is the size of aggregates, the better is the solvent power for the solute concerned. In the case of the present invention, the solvent consists of the compounds of general formula (I) and solutes are modified PHENOLIC RESINS and MALEIC RESINS. In this case, the smaller is the hydrodynamic radius, better is the solvation degree of the resin by the solvent, which is therefore better than solvents giving a lower solvation degree, and therefore a larger hydrodynamic radius relative to the same resins. The hydrodynamic radii found by DLS for the solvents used by us are the lowest compared to the other commercially available solventsstudied. The high solvent power, therefore confirmed by the hydrodynamic radius, has a huge impact on the paint final properties and on the production mode. The final properties are affected by the fact that the higher solvent power of our compounds allows to dissolve the rosin and maleic resins up to 70% by weight, and therefore allow to produce paints having a high degree of gloss and very high surface resistance, since these latter properties depend on the amount of resin that a solvent can dissolve to form a paint. In addition, the production mode of the paint was performed at 80°C instead of 200°C because our compounds are more solvent with respect to the commercially available ones and need a lower operating temperature in order to dissolve completely and appropriately the resins concerned.
Actually, in samples having a good resin dispersion, which are clear, particles with sub-micrometric size (2-300 nm) are obtained; sizes are associated with the presence of more or less large aggregates. In the extreme cases of precipitation phenomena (> 1000 nm), the sample appears cloudy, and this is associated with a very poor resin dispersion.
In our case, from the data shown in Tables 1 and 2 of Example 3 it can be clearly seen that […] for the solvents of the invention, and therefore the size of the aggregates, is considerably lower than in solvents commercially available at present for dispersing modified phenolic resins and maleic resins. […] A 5% w/w modified synthetic phenolic resin was used for the mixtures to be tested by DLS obtained industrially by esterification of rosin with pentaerythritol, and subsequent polymerization with phenol, trade name SIRIUS XVI, supplied by YSER. The Maleic Resin used is Perseus I supplied by Yser. Table 3. ROSIN MODIFIED ESTER RESIN

[3] = 5% w/w Perseus I resin in the solvent
[4] = 5% w/w SIRIUS XVI resin in the solvent

| SMILES | 45% resin (dissolution time at 80 °C, min) ([1]; maleic resin) [min] | 45% resin (dissolution time at 80 °C, min) ([1]; rosin modified ester resin) [min] | 55% resin (dissolution time at 80 °C, min) ([1]; maleic resin) | 55% resin (dissolution time at 80 °C, min) ([1]; rosin modified ester resin) | Hydrodynamic radius (nm) [2, 3] [nm] | Polydispersity index [2, 3] | Hydrodynamic radius (nm) [2, 4] [nm] | Polydispersity index [2, 4] | aggregate sizes ([2]; maleic resin dispersed in the solvent) | aggregate sizes ([2]; modified phenolic resin dispersed in the solvent) |
| --- | --- | --- | --- | --- | --- | --- | --- | --- | --- | --- |
| CCCCCCCCOC(=O)CCCCC [CAOOt, octyl caproate] | >60 | >60 | A clear solution is not obtained after 4 hrs | A clear solution is not obtained after 2 hrs | – | – | – | – | – | – |
| CCCCCCOC(=O)CCCCC [CAOEs, hexyl caproate] | >60 | >60 | A clear solution is not obtained after 4 hrs | A clear solution is not obtained after 2 hrs | – | – | – | – | – | – |
| CCCCCCCCC(=O)OC(C)C [PAOiPr, isopropyl pelargonate] | 10 | 13 | 15 min | 15 min | 2.74±0.11 | 1.0±0.3 | 9.2 ± 1.3 | 0.64±0.14 | – | – |
| CCCCCCCCCCCC(=O)OCCCCCCCC [LAOOt, octyl laurate] | >60 | >60 | A clear solution is not obtained after 2 hrs | A clear solution is not obtained after 2 hrs | – | – | – | – | – | – |
| CCCCCCCCC(=O)OCC(CC)CCCC (stereo not shown) [PAOEtEs, 2-ethyl-hexyl pelargonate] | 60 | 50 | Clear solution | Clear solution | – | – | – | – | – | – |
| CCCCCC(=O)OC(C)C [CAOiPr, isopropyl caproate] | >60 | >60 | A clear solution is not obtained after 4 hrs | A clear solution is not obtained after 2 hrs | – | – | – | – | – | – |
| CCCCCCCCCCCC(=O)OCC(CC)CCCC (stereo not shown) [LAOEtEs, 2-ethyl-hexyl laurate] | >60 | >60 | A clear solution is not obtained after 2 hrs | A clear solution is not obtained after 2 hrs | – | – | – | – | – | – |
| CCCCCCCCCCCC(=O)OCCCC [LAOBu, butyl laurate] | >60 | >60 | A clear solution is not obtained after 2 hrs | A clear solution is not obtained after 2 hrs | – | – | – | – | – | – |
| CCCCCCCCCCCC(=O)OC(C)C [LAOiPr, isopropyl laurate] | >60 | >60 | A clear solution is not obtained after 2 hrs | A clear solution is not obtained after 2 hrs | – | – | – | – | – | – |
| CCCCCC(=O)OCCCC [CAOBu, butyl caproate] | >60 | >60 | A clear solution is not obtained after 4 hrs | A clear solution is not obtained after 2 hrs | – | – | – | – | – | – |
| CCCCCCCCC(=O)OC [PAOMe, methylpelargonate] | 10 | 15 | 15 min | 16 min | 1.7±0.6 | 0.90±0.42 | 8.9 ± 0.9 | 0.76±0.11 | – | – |
| CCCCCCCCCCCCCCCC(=O)OCC(CC)CCCC (stereo not shown) [Solvent 7129, 2-ethylhexyl palmitate] | – | >60 | – | A clear solution is not obtained after 2 hrs | – | – | – | – | exceeding the limit of detectability by DLS | exceeding the limit of detectability by DLS |
| CCCCCCCCCCCC(=O)OCCCCCC [LAOEs, hexyl laurate] | >60 | >60 | A clear solution is not obtained after 2 hrs | A clear solution is not obtained after 2 hrs | – | – | – | – | – | – |
| CCCCCCCCC(=O)OCCCC [PAOBu, butylpelargonate] | 15 | 13 | 20 min | 14 min | 2.34 ± 0.8 | 0.70±0.06 | 12.9 ± 0.4 | 0.71±0.06 | – | – |
| CCCCCC(=O)OCC(CC)CCCC (stereo not shown) [CAOEtEs, 2-ethyl-hexyl caproate] | – | >60 | – | A clear solution is not obtained after 2 hrs | – | – | – | – | – | – |
